According to patent publication US20170022171A1, “2,5-DISUBSTITUTED CYCLOPENTANECARBOXYLIC ACIDS AND THEIR USE” (Bayer Pharma Aktiengesellschaft, priority 2014, published 2017):

Columns and labels:
Format in all cases: biochemical
[1] = biological target: T1, human macrophage elastase (HME/hMMP-12) (Homo sapiens, UniProt P39900); assay: In vitro HME inhibition test (standard or high-sensitivity); conditions: in some cases mean values
T1 construct: 0.5 nM HME; purchased R&D Systems 917-MP
Outline: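 Fluorogenic assay: 0.5 nM autoactivated HME with 5 µM Mca-Pro-Leu-Gly-Leu-Glu-Glu-Ala-Dap(Dnp)-NH2 in HEPES pH 7.4 buffer (NaCl, CaCl2, ZnCl2, EDTA, Brij), 2 h at 37 °C; ex 323/em 393 nm. IC50 from fluorescence versus concentration. High-sensitivity format: ~0.05 nM enzyme, ~16 h incubation.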

MMP-1 = biological target: T2, MMP-1 (Homo sapiens, UniProt P03956); assay: In vitro MMP-1 inhibition test
T2 construct: purchased R&D Systems 901-MP
T2 sequence (P03956 100-469): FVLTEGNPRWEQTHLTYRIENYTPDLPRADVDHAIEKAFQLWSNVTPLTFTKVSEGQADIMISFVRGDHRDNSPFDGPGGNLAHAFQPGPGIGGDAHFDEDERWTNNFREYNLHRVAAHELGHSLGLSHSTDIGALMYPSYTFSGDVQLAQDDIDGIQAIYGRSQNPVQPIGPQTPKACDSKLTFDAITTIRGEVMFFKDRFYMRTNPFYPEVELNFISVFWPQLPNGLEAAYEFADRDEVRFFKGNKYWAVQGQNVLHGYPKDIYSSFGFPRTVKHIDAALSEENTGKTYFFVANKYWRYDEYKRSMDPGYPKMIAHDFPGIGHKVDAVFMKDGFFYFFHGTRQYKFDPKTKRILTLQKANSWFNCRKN
Outline: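 APMA-activated recombinant enzyme (e.g. 2 nM final) in 50 mM Tris/HCl pH 7.5, 10 mM CaCl2, 150 mM NaCl, 0.05% Brij-35 with compound in DMSO (e.g. 1 nM–30 μM). Quenched Mca-Pro-Leu-Gly-Leu-Dpa(Dnp)-Ala-Arg-NH2 substrate (e.g. 10 μM) started reaction; fluorescence (ex 320/em 410 nm) followed e.g. 120 min at 32° C; IC50 at 50% signal.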

MMP-9 = biological target: T3, MMP-9 (Homo sapiens, UniProt P14780); assay: In vitro MMP-9 inhibition test
T3 construct: purchased R&D Systems 911-MP
Outline: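 Recombinant MMP-9 was APMA-activated and used at e.g. 0.1 nM final in 50 mM Tris/HCl pH 7.5, 10 mM CaCl2, 150 mM NaCl, 0.05% Brij-35, with compound at e.g. 1 nM to 30 μM. Quenched Mca-Pro-Leu-Gly-Leu-Dpa(Dnp)-Ala-Arg-NH2 substrate (e.g. 10 μM) was followed by fluorescence (ex 320/em 410 nm), e.g. 120 min at 32 °C. IC50 corresponds to 50% signal.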

MMP-14 = biological target: T4, MMP-14 (Homo sapiens, UniProt P50281); assay: In vitro MMP-14 inhibition test
T4 construct: purchased R&D Systems 918-MP
Outline: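 Furin-activated recombinant MMP-14 (e.g. 0.5 nM final) with compound in Tris pH 7.5, CaCl2, NaCl, Brij-35 buffer; Mca/Dnp quenched peptide substrate, e.g. 5 μM final. Fluorescence (ex 320/em 410 nm) followed e.g. 120 min at 32 °C; IC50 at half-maximal signal.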

T1 sequence (P39900 106-470): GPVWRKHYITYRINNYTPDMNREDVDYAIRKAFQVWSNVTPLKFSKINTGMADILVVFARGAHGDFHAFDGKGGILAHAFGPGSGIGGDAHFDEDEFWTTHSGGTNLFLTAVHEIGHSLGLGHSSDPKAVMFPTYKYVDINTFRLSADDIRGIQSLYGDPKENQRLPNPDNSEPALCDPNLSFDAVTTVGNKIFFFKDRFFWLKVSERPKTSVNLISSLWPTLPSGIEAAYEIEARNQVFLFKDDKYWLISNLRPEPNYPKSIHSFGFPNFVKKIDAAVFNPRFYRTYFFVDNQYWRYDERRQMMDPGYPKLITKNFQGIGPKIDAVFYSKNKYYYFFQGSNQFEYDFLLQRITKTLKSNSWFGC
T3 sequence (P14780 107-707 limits assumed): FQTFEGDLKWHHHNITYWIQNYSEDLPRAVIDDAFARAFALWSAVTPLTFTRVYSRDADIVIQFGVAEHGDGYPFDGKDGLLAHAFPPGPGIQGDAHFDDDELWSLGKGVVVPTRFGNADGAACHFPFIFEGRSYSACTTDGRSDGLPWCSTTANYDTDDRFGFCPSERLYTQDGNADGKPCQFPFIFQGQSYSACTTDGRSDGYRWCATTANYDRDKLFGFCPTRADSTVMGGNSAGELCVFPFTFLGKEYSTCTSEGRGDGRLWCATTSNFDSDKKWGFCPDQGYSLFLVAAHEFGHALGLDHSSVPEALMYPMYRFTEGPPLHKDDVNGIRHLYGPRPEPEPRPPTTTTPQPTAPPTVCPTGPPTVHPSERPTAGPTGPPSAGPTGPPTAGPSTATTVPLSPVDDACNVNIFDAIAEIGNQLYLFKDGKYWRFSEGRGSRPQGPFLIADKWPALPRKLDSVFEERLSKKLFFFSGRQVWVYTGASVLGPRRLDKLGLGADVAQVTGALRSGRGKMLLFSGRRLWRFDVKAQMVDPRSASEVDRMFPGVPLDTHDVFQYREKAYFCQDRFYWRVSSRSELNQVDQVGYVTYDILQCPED

| Compound | IC50 [1] | IC50 (MMP-1) | IC50 (MMP-9) | IC50 (MMP-14) |
| --- | --- | --- | --- | --- |
| COC(=O)Nc1cccc(COc2ccc(C(=O)[C@@H]3CC[C@H](Cn4nnc5ccc(C(F)(F)F)cc5c4=O)[C@H]3C(=O)O)cc2)c1 (stereo in doubt) [Example 31, (+)-(1RS,2RS,5SR)-2-[4-({3-[(Methoxycarbonyl)amino]benzyl}oxy)benzoyl]-5-{[4-oxo-6-(trifluoromethyl)-1,2,3-benzotriazin-3(4H)-yl]methyl}cyclopentanecarboxylic acid] | 0.012 nM | 5400 nM | 2100 nM | 400 nM |
| (+)-(1RS,2RS,5SR)-2-{4-[(3,4-Dichlorobenzyl)oxy]benzoyl}-5-{[4-oxo-6-(trifluoromethyl)-1,2,3-benzotriazin-3(4H)-yl]methyl}cyclopentanecarboxylic acid [Example 28] | 0.036 nM | 17000 nM | 260 nM | 1900 nM |
| (+)-(1RS,2RS,5SR)-2-{4-[Cyclohexyl)methyl)sulphanyl]benzoyl}-5-{[4-oxo-6-(trifluoromethyl)-1,2,3-benzotriazin-3(4H)-yl]methyl}cyclopentanecarboxylic acid [Example 86] | 0.018 nM | 27000 nM | 1500 nM | 3900 nM |
| (+)-(1RS,2SR,5RS)-2-{[4-Oxo-6-(trifluoromethyl)-1,2,3-benzotriazin-3(4H)-yl]methyl}-5-{4-[(2-phenylethy)sulphanyl]benzoyl}cyclopentanecarboxylic acid [Example 83] | 0.11 nM | > 40000 nM | 2100 nM | 3900 nM |

Next, values leading:

| IC50 [1] | IC50 (MMP-1) | IC50 (MMP-9) | IC50 (MMP-14) | Compound |
| --- | --- | --- | --- | --- |
| 0.035 nM | 11000 nM | 89 nM | 290 nM | COc1cccc(COc2ccc(C(=O)[C@@H]3CC[C@H](Cn4nnc5ccc(C)cc5c4=O)[C@H]3C(=O)O)cc2)c1 (single isomer, unassigned) [Example 107, (+)-(1RS,2RS,5SR)-2-{4-[(3-Methoxybenzyl)oxy]benzoyl}-5-[(6-methyl-4-oxo-1,2,3-benzotriazin-3(4H)-yl)methyl]cyclopentanecarboxylic acid] |
| 0.087 nM | > 40000 nM | 380 nM | 720 nM | Cc1ccc2nnn(C[C@H]3CC[C@@H](C(=O)c4ccc(OCc5cccc(OC(F)(F)F)c5)cc4)[C@@H]3C(=O)O)c(=O)c2c1 (single isomer, unassigned) [Example 110, (+)-(1RS,2SR,5RS)-2-[(6-Methyl-4-oxo-1,2,3-benzotriazin-3(4H)-yl)methyl]-5-(4-{[3-(trifluoromethoxy)benzyl]oxy}benzoyl)cyclopentanecarboxylic acid] |
| 0.014 nM | 4400 nM | 54 nM | 88 nM | Cc1ccc2nnn(C[C@H]3CC[C@@H](C(=O)c4ccc(OCC5CCCCC5)cc4)[C@@H]3C(=O)O)c(=O)c2c1 (single isomer, unassigned) [Example 117, (+)-(1RS,2RS,5SR)-2-[4-(Cyclohexylmethoxy)benzoyl]-5-[(6-methyl-4-oxo-1,2,3-benzotriazin-3(4H)-yl)methyl]cyclopentanecarboxylic acid] |
| 0.078 nM | 13000 nM | 57 nM | 820 nM | CCCCCCOc1ccc(C(=O)[C@@H]2CC[C@H](Cn3nnc4ccc(C)cc4c3=O)[C@H]2C(=O)O)cc1 (single isomer, unassigned) [Example 121, (+)-(1RS,2RS,5SR)-2-[4-(Hexyloxy)benzoyl]-5-[(6-methyl-4-oxo-1,2,3-benzotriazin-3(4H)-yl)methyl]cyclopentanecarboxylic acid] |
